Experimental data taken from patent US20240270715A1, “INHIBITORS OF TRANSGLUTAMINASES” (ZEDIRA GMBH, priority 2021, published 2024).
Like-named read-outs stand apart in the source and are kept apart here.

Key:
Caco-2 barrier = test: Caco-2 permeability assay (CacoReady kit); format: in vitro ADME
Method in brief: (§1)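 Caco-2 monolayer barrier, commercial ready-to-use kit, manufacturer protocol. Read-out: Papp.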

[1] = Log D by shake flask method (octanol / PBS pH 7.4, HPLC); format: physicochemical; conditions: octanol / PBS pH 7.4, shake flask
Method in brief: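 Log D is derived by HPLC measurement of how the compound distributes between octanol and pH 7.4 phosphate-buffered saline in a shake flask.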

[2] = Caco-2 permeability assay (CacoReady kit); format: in vitro ADME; conditions: human
Method in brief: as §1

[3] = target: T1, recombinant human transglutaminase 2 (Homo sapiens, UniProt P21980); test: Transglutaminase assay: incorporation of dansylcadaverine into dimethylcasein (DCC-assay); format: biochemical
T1 sequence (P21980 1-687): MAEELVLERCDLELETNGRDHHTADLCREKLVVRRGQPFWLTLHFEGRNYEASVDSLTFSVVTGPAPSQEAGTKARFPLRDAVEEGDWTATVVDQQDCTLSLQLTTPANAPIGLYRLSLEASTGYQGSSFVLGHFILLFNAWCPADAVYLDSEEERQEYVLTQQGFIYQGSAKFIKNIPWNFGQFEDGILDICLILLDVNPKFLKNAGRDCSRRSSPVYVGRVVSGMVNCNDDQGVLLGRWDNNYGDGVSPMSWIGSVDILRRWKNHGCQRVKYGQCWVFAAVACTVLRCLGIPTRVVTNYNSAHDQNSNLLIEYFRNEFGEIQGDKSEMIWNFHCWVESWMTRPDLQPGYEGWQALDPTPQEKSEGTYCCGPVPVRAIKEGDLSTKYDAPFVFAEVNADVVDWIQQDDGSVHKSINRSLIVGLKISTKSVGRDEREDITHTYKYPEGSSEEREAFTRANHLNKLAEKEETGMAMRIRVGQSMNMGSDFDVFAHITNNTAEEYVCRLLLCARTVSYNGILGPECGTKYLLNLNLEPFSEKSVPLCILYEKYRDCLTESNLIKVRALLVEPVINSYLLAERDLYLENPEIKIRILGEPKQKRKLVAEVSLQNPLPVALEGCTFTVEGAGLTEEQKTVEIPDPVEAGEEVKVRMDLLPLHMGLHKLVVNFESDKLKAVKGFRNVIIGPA
Method in brief: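 Recombinant human TG2 (10 nM final) incorporates dansylcadaverine (16.7 μM) into N,N-dimethylcasein (4 μM) in Tris-HCl buffer, pH 8.0, with 10 mM CaCl2 and 10 mM glutathione. Fluorescence (λex 330, λem 500 nm) followed 30 min. The slope between 20–30 min gives activity versus DMSO control, and IC50 comes from the concentration–activity plot.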

[4] = recombinant human TG2 10 nM, dansylcadaverine/dimethylcasein, read-out: IC50 TG2
[5] = DCC-assay, values in text, read-out: IC50

Row | Papp (Caco-2 barrier) | logD [1] | Papp [2] [×10⁻⁶ cm/s] | logD ([1]; read-out: logD) | IC50 [3, 4] [nM] | fold more potent compared to Ref. 4 ([3]; ratio of IC50, compare table 1) | fold more potent compared to Ref. 3 ([3]; DCC-assay, ratio of IC50) [fold] | IC50 [3, 5] [nM] | SMILES
1 | A (A: Papp < 1 × 10^−6 cm/s) | B (B: 1 ≤ logD < 3) | – | – | – | – | – | – | CCNC(=O)C(=O)CC[C@H](NC(=O)c1ccn(C)n1)C(=O)Nc1cccn(CC(=O)N[C@]23C[C@H]4C5CC6CC4[C@H](C2)C(C6)[C@H]5C3)c1=O (single isomer, unassigned) [Compound I-80]
2 | – | – | < 1 | < 1 | 150 to 600 | – | – | – | CCNC(=O)C(=O)CC[C@H](NC(=O)c1ccc2ccoc2c1)C(=O)Nc1cccn(CC(=O)NC2C3CC4CC2CC(C(N)=O)(C4)C3)c1=O (stereo partly drawn) [Compound I-114, (S)-2-(benzofuran-6-carboxamido)-N6-ethyl-N1-(1-(2-(4-aminoadamantane-1-carboxamide)-2-oxoethyl)-2-oxo-1,2-dihydropyridin-3-yl)-5-oxohexanediamide]
3 | – | – | < 1 | < 1 | 600 to 3500 | – | – | – | CCNC(=O)C(=O)CC[C@H](NC(=O)c1nc(C2(C)CC2)no1)C(=O)Nc1cccn(CC(=O)NC2C3CC4CC2CC(C(N)=O)(C4)C3)c1=O (stereo partly drawn) [Compound I-115, (S)-N1-ethyl-N6-(1-(2-(4-aminoadamantane-1-carboxamide)-2-oxoethyl)-2-oxo-1,2-dihydropyridin-3-yl)-5-(3-(1-methylcyclopropyl)-1,2,4-oxadiazole-5-carboxamido)-2-oxohexanediamide]
4 | – | – | < 1 | < 1 | 600 to 3500 | – | – | – | CCNC(=O)C(=O)CC[C@H](NC(=O)c1noc(C)n1)C(=O)Nc1cccn(CC(=O)NC23CC(C2)C3)c1=O [Compound I-116, (S)-N1-(1-(2-(bicyclo[1.1.1]pentan-1-ylamino)-2-oxoethyl)-2-oxo-1,2-dihydropyridin-3-yl)-N6-ethyl-2-(5-methyl-1,2,4-oxadiazole-3-carboxamido)-5-oxohexanediamide]
5 | – | – | < 1 | < 1 | 150 to 600 | – | – | – | CCNC(=O)C(=O)CC[C@H](NC(=O)c1csnn1)C(=O)Nc1cccn(CC(=O)NC23CC(C2)C3)c1=O [Compound I-117, (S)-N1-(1-(2-(bicyclo[1.1.1]pentan-1-ylamino)-2-oxoethyl)-2-oxo-1,2-dihydropyridin-3-yl)-N6-ethyl-5-oxo-2-(1,2,3-thiadiazole-4-carboxamido)hexanediamide]
6 | – | – | < 1 | < 1 | 150 to 600 | – | – | – | CCNC(=O)C(=O)CC[C@H](NC(=O)c1ncns1)C(=O)Nc1cccn(CC(=O)NC23CC(C2)C3)c1=O [Compound I-118, (S)-N1-(1-(2-(bicyclo[1.1.1]pentan-1-ylamino)-2-oxoethyl)-2-oxo-1,2-dihydropyridin-3-yl)-N6-ethyl-5-oxo-2-(1,2,4-thiadiazole-5-carboxamido)hexanediamide]
7 | – | – | < 1 | < 1 | 150 to 600 | – | – | – | CCNC(=O)C(=O)CC[C@H](NC(=O)c1nncs1)C(=O)Nc1cccn(CC(=O)NC23CC(C2)C3)c1=O [Compound I-119, (S)-N1-(1-(2-(bicyclo[1.1.1]pentan-1-ylamino)-2-oxoethyl)-2-oxo-1,2-dihydropyridin-3-yl)-N6-ethyl-5-oxo-2-(1,3,4-thiadiazole-2-carboxamido)hexanediamide]
8 | – | – | < 1 | < 1 | 150 to 600 | – | – | – | CCNC(=O)C(=O)CC[C@H](NC(=O)c1snnc1C=O)C(=O)Nc1cccn(CC(=O)NC2C3CC4CC(C3)CC2C4)c1=O (stereo partly drawn) [Compound I-120, (S)-N1-ethyl-5-(4-formyl-1,2,3-thiadiazole-5-carboxamido)-N6-(1-(2-(2-adamantylamino)-2-oxoethyl)-2-oxo-1,2-dihydropyridin-3-yl)-2-oxohexanediamide]
9 | – | – | < 1 | < 1 | < 150 | – | – | – | CCNC(=O)C(=O)CC[C@H](NC(=O)c1cccnc1)C(=O)Nc1cccn(CC(=O)NC23CC4CC(CC(C4)C2)C3)c1=O [Compound I-121, (S)-N1-ethyl-N6-(1-(2-(3,5-dimethyladamantane-1-amino)-2-oxoethyl)-2-oxo-1,2-dihydropyridin-3-yl)-5-(nicotinamido)-2-oxohexanediamide]
10 | – | – | < 1 | < 1 | 600 to 3500 | about 15 fold | – | – | CCC(CC)CNC(=O)Cn1cccc(NC(=O)[C@H](CCC(=O)C(=O)NC)NC(=O)c2cncn2C)c1=O [Ref. 1, reference compound]
11 | – | – | < 1 | 1 to 3 | < 150 | – | 80 | 53 | CCC(CC)CNC(=O)Cn1cccc(NC(=O)[C@H](CC/C=C/C(=O)OC)NC(=O)c2cncn2C)c1=O [Ref. 2, reference compound]
12 | – | – | < 1 | 1 to 3 | 3500 to 10000 | – | – | 4270 | CCOC(=O)/C=C/CC[C@H](NC(=O)c1cccnc1)C(=O)Nc1ccc(C)n(CC(=O)NCCc2ccccc2)c1=O [Ref. 3, reference compound]
13 | – | – | < 1 | < 1 | 3500 to 10000 | – | – | – | CCNC(=O)C(=O)CC[C@H](NC(=O)c1cccnc1)C(=O)Nc1cccn(CC(=O)NCCc2ccccc2)c1=O [Ref. 4, reference compound]
